In US20060069132A1, “Azolecarboxamide herbicides” (priority 2004, published 2006):

Experiments:
[1] = tested on: Surinam grass; test: Test C pre-/postemergence herbicide test; assay type: in vivo, Urochloa decumbens; details: for Plant response rating (0 = no effect, 100 = complete control), Surinam Grass / Plant response rating, Surinam Grass: preemergence
Outline: (§1)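 Visual injury scores run from 0 (no effect) to 100 (complete control), assessed relative to untreated controls 12 to 14 days after treatment in the greenhouse. Chemicals were formulated in a non-phytotoxic solvent mixture with surfactant and applied to soil after planting or to emerged plants at the 1- to 4-leaf stage.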

[2] = tested on: soybean; test: Test C pre-/postemergence herbicide test; assay type: in vivo, Glycine max; details: for Plant response rating (0 = no effect, 100 = complete control), Soybean / Plant response rating, Soybean: preemergence
Outline: as §1

[3] = tested on: johnsongrass; test: Test C pre-/postemergence herbicide test; assay type: in vivo, Sorghum halepense; details: for Plant response rating (0 = no effect, 100 = complete control), Johnsongrass / Plant response rating, Johnsongrass: preemergence
Outline: as §1

[4] = tested on: cocklebur; test: Test C pre-/postemergence herbicide test; assay type: in vivo, Xanthium strumarium; details: for Plant response rating (0 = no effect, 100 = complete control), Cocklebur / Plant response rating, Cocklebur: preemergence
Outline: as §1

[5] = tested on: goosegrass; test: Test C pre-/postemergence herbicide test; assay type: in vivo, Eleusine indica; details: for Plant response rating (0 = no effect, 100 = complete control), Goosegrass / Plant response rating, Goosegrass: preemergence
Outline: as §1

[6] = tested on: morningglory; test: Test A pre-/postemergence herbicide test; assay type: in vivo, Ipomoea spp.; details: for Plant response rating, Morningglory: Postemergence; for Morningglory plant response rating: Preemergence
Outline: (§2)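 Pre: seeded sandy loam, directed soil spray, compound in non-phytotoxic solvent + surfactant. Post: 1–2-leaf plants (2–10 cm), sprayed to runoff. Greenhouse ~10 d; visual injury vs untreated, 0–100 scale.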

[7] = tested on: velvetleaf; test: Test A pre-/postemergence herbicide test; assay type: in vivo, Abutilon theophrasti; details: for Velvetleaf plant response rating: Preemergence, visual rating, 0 to 100 scale (0 no effect, 100 complete control)
Outline: as §2

[8] = tested on: pigweed; test: Test C pre-/postemergence herbicide test; assay type: in vivo, Amaranthus retroflexus; details: for Plant response rating (0 = no effect, 100 = complete control), Pigweed / Plant response rating, Pigweed: preemergence
Outline: as §1

[9] = tested on: bermudagrass; test: Test C pre-/postemergence herbicide test; assay type: in vivo, Cynodon dactylon; details: for Plant response rating (0 = no effect, 100 = complete control), Bermudagrass / Plant response rating, Bermudagrass: preemergence
Outline: as §1

[10] = 125 g ai/ha, scale 0 (no effect) to 100 (complete control), visual, 12 to 14 days
[11] = 250 g ai/ha, scale 0 to 100 (0 no effect, 100 complete control), visual, 12 to 14 days
[12] = Preemergence, 500 g ai/ha, scale 0 to 100, 0 no effect, 100 complete control
[13] = 2000 g ai/ha, 0 to 100 scale, 0 no effect, 100 complete control
[14] = 500 g ai/ha, scale 0 to 100 (0 no effect, 100 complete control), visual, 12 to 14 days
[15] = 62 g ai/ha, scale 0 to 100, 0 no effect, 100 complete control

CCn1nc(C(C)(C)C)cc1C(=O)Nc1cccc(C(=O)NCC(C)C)c1 [Compound 61]
Plant response rating (0 = no effect, 100 = complete control), Surinam Grass ([1]; 62 g ai/ha): 0
Plant response rating, Surinam Grass [1, 10]: 0
Plant response rating, Surinam Grass [1, 11]: 5
Surinam Grass plant response rating [1, 12]: 5
Plant response rating (0 = no effect, 100 = complete control), Soybean ([2]; 62 g ai/ha): 0
Plant response rating, Soybean [2, 10]: 0
Plant response rating, Soybean [2, 11]: 0
Soybean plant response rating [2, 12]: 10
Plant response rating (0 = no effect, 100 = complete control), Johnsongrass ([3]; 62 g ai/ha): 10
Plant response rating, Johnsongrass [3, 10]: 30
Plant response rating, Johnsongrass [3, 11]: 50
Johnsongrass plant response rating [3, 12]: 60
Plant response rating (0 = no effect, 100 = complete control), Cocklebur ([4]; 62 g ai/ha): 0
Plant response rating, Cocklebur [4, 10]: 0
Cocklebur plant response rating [4, 12]: 0
Plant response rating (0 = no effect, 100 = complete control), Goosegrass ([5]; 62 g ai/ha): 0
Plant response rating, Goosegrass [5, 10]: 40
Plant response rating, Goosegrass [5, 11]: 70
Goosegrass plant response rating [5, 12]: 95
Plant response rating, Morningglory ([6]; 500 g ai/ha, 0 to 100 scale, 0 no effect, 100 complete control): 10
Plant response rating, Morningglory [6, 13]: 20
Morningglory plant response rating ([6]; 500 g ai/ha, visual rating, 0 to 100 scale (0 no effect, 100 complete control)): 20
Morningglory plant response rating [6, 13]: 50
Plant response rating, Velvetleaf ([7]; Postemergence, 2000 g ai/ha, 0 to 100 scale, 0 no effect, 100 complete control): 15
Velvetleaf plant response rating ([7]; 500 g ai/ha): 55
Velvetleaf plant response rating ([7]; 2000 g ai/ha): 85
Plant response rating (0 = no effect, 100 = complete control), Pigweed ([8]; 62 g ai/ha): 0
Plant response rating, Pigweed [8, 10]: 95
Plant response rating, Pigweed [8, 11]: 95
Pigweed plant response rating [8, 12]: 95
Plant response rating (0 = no effect, 100 = complete control), Bermudagrass ([9]; 62 g ai/ha): 10
Plant response rating, Bermudagrass [9, 10]: 70
Plant response rating, Bermudagrass [9, 11]: 80
Bermudagrass plant response rating [9, 12]: 95

Cc1nn(C(C)(C)C)nc1C(=O)Nc1cccc(C(=S)N(C)C)c1 [Compound 419]
Plant response rating, Surinam Grass ([1]; 62 g ai/ha, scale 0 to 100): 0
Plant response rating (0 = no effect, 100 = complete control), Surinam Grass ([1]; 125 g ai/ha): 45
Plant response rating, Surinam Grass [1, 14]: 100
Plant response rating, Soybean ([2]; 62 g ai/ha, scale 0 to 100): 40
Plant response rating (0 = no effect, 100 = complete control), Soybean ([2]; 125 g ai/ha): 85
Plant response rating, Soybean [2, 14]: 95
Plant response rating, Johnsongrass ([3]; 62 g ai/ha, scale 0 to 100): 100
Plant response rating (0 = no effect, 100 = complete control), Johnsongrass ([3]; 125 g ai/ha): 100
Plant response rating, Johnsongrass ([3]; 250 g ai/ha, scale 0-100): 100
Plant response rating, Johnsongrass [3, 14]: 100
Plant response rating, Cocklebur ([4]; 62 g ai/ha, scale 0 to 100): 0
Plant response rating (0 = no effect, 100 = complete control), Cocklebur ([4]; 125 g ai/ha): 25
Plant response rating, Cocklebur ([4]; 250 g ai/ha, scale 0-100): 45
Plant response rating, Cocklebur [4, 14]: 70
Plant response rating, Goosegrass ([5]; 62 g ai/ha, scale 0 to 100): 45
Plant response rating (0 = no effect, 100 = complete control), Goosegrass ([5]; 125 g ai/ha): 95
Plant response rating, Goosegrass ([5]; 250 g ai/ha, scale 0-100): 100
Plant response rating, Goosegrass [5, 14]: 100
Plant response rating, Pigweed ([8]; 62 g ai/ha, scale 0 to 100): 100
Plant response rating (0 = no effect, 100 = complete control), Pigweed ([8]; 125 g ai/ha): 100
Plant response rating, Pigweed [8, 14]: 100
Plant response rating, Bermudagrass [9, 15]: 100
Plant response rating (0 = no effect, 100 = complete control), Bermudagrass ([9]; 125 g ai/ha): 100
Plant response rating, Bermudagrass ([9]; 250 g ai/ha, scale 0-100): 100
Plant response rating, Bermudagrass [9, 14]: 100

CCNC(=S)c1cccc(NC(=O)c2nn(C(C)(C)C)nc2C)c1 [Compound 420]
Plant response rating, Surinam Grass ([1]; 62 g ai/ha, scale 0 to 100): 10
Plant response rating (0 = no effect, 100 = complete control), Surinam Grass ([1]; 125 g ai/ha): 20
Plant response rating, Surinam Grass [1, 14]: 95
Plant response rating, Soybean ([2]; 62 g ai/ha, scale 0 to 100): 0
Plant response rating (0 = no effect, 100 = complete control), Soybean ([2]; 125 g ai/ha): 10
Plant response rating, Soybean [2, 14]: 85
Plant response rating, Johnsongrass ([3]; 62 g ai/ha, scale 0 to 100): 100
Plant response rating (0 = no effect, 100 = complete control), Johnsongrass ([3]; 125 g ai/ha): 100
Plant response rating, Johnsongrass ([3]; 250 g ai/ha, scale 0-100): 100
Plant response rating, Johnsongrass [3, 14]: 100
Plant response rating, Cocklebur ([4]; 62 g ai/ha, scale 0 to 100): 0
Plant response rating (0 = no effect, 100 = complete control), Cocklebur ([4]; 125 g ai/ha): 0
Plant response rating, Cocklebur ([4]; 250 g ai/ha, scale 0-100): 15
Plant response rating, Cocklebur [4, 14]: 70
Plant response rating, Goosegrass ([5]; 62 g ai/ha, scale 0 to 100): 95
Plant response rating (0 = no effect, 100 = complete control), Goosegrass ([5]; 125 g ai/ha): 95
Plant response rating, Goosegrass ([5]; 250 g ai/ha, scale 0-100): 100
Plant response rating, Goosegrass [5, 14]: 100
Plant response rating, Pigweed ([8]; 62 g ai/ha, scale 0 to 100): 100
Plant response rating (0 = no effect, 100 = complete control), Pigweed ([8]; 125 g ai/ha): 100
Plant response rating, Pigweed [8, 14]: 100
Plant response rating, Bermudagrass [9, 15]: 100
Plant response rating (0 = no effect, 100 = complete control), Bermudagrass ([9]; 125 g ai/ha): 100
Plant response rating, Bermudagrass ([9]; 250 g ai/ha, scale 0-100): 100
Plant response rating, Bermudagrass [9, 14]: 100
